# Data from patent US20200163984A1, “USE OF ISOVALERYL SPIRAMYCIN I, II AND/OR III IN MANUFACTURING MEDICAMENT FOR TREATING AND/OR PREVENTING TUMOR, AND MEDICAMENT” (SHENYANG FUYANG PHARMACEUTICAL TECHNOLOGY CO., LTD., priority 2017, published 2020).
# Experiments:
# [1] = test system: transplanted tumor of human bladder cancer cell T-24; assay: T-24 transplanted tumor in nude mice; conditions: for Tumor Volume (mm3) (d30): d 30
# Method: (§1) Then cell concentration was adjusted to 1×10^7/ml with matrigel, then each nude mouse was inoculated subcutaneously with 0.2 ml of cells at its right armpit and recorded as the first day of inoculation. When the tumor grows to be greater than or equal to 100 mm^3, the mice were randomly divided into 11 groups with 6 mice in each group: isovaleryl spiramycin I groups with doses of 25, 50 and 100 mg/kg, isovaleryl spiramycin II groups with doses of 25, 50 and 100 mg/kg, and isovaleryl spiramycin III groups with doses of 25, 50 and 100 mg/kg. Each group was continuously administered intragastrically for 30 days with a dose of 20 ml/kg. The mice were sacrificed the next day after drug withdrawal and the indicators were tested. The long diameter and short diameter of the tumor, and the body weight of each mouse were recorded every 3 days from drug administration to nude mouse sacrifice.
# (§2) The body weight of the nude mice and the long diameter (a) and short diameter (b) of the transplanted tumor were measured every 3 days, and the tumor volume (v), relative tumor volume (RTV) and relative tumor proliferation rate (T/C) are calculated respectively according to the following formulas, wherein V=a×b^2/2; RTV=V/V0 (V0 is the tumor volume before administration, V is the tumor volume before sacrifice), and T/C (%)=treatment group RTV/model control group RTV×100%.
# (§3) Each mouse was weighed and sacrificed. After the tumor was completely stripped off from the body of the mouse, the non-tumor tissues such as blood stains and fat were removed to weigh the tumor and calculate the tumor growth inhibition rate. The average tumor weight of each group of mice is used as an indicator of efficacy. Tumor growth inhibition rate (%)=(1−the average tumor weight of the treatment group/the average tumor weight of the model group)×100%.
# [2] = test system: transplanted tumor of human large cell lung cancer H460 cells; assay: H460 transplanted tumor in nude mice
# Method: as §1, §2, §3
# [3] = test system: transplanted tumor of human non-small cell lung cancer cell A549; assay: A549 transplanted tumor in nude mice; conditions: for Tumor Volume (mm3) (d 1): d1
# Method: as §1, with “A549 cells in a logarithmic growth phase were taken and subjected to a trypan blue exclusion experiment showing that the cell viability was more than 95%, then the cells were subjected to trypsinization, centrifugation, and supernatant removal. Then” for “Then”, “group: a model group, a cyclophosphamide group,” for “group:”
# as §2, §3
# [4] = T-24, high dose (100 mg/kg in method) i.g. 30 days
# [5] = T-24, low dose (25 mg/kg in method) i.g. 30 days
# [6] = T-24, medium dose (50 mg/kg in method) i.g. 30 days
# [7] = H460, 25 mg/kg (low dose) i.g. 30 days
# [8] = H460, 50 mg/kg (medium dose) i.g. 30 days
# [9] = H460, 100 mg/kg (high dose) i.g. 30 days
# [10] = A549, high dose (100 mg/kg in method) i.g. 30 days
# [11] = A549, low dose (25 mg/kg in method) i.g. 30 days
# [12] = A549, medium dose (50 mg/kg in method) i.g. 30 days
smiles,measurement,setting,value
"CCC(=O)O[C@@H]1CC(=O)O[C@H](C)C/C=C/C=C/[C@H](O[C@H]2CC[C@H](N(C)C)[C@@H](C)O2)[C@H](C)C[C@H](CC=O)[C@H](O[C@@H]2O[C@H](C)[C@@H](O[C@H]3C[C@@](C)(O)[C@@H](OC(=O)CC(C)C)[C@H](C)O3)[C@H](N(C)C)[C@H]2O)[C@H]1OC [Isovaleryl spiramycin III, isovaleryl spiramycin III]",Relative Tumor Proliferation Rate (T/C),[1]; [4],39.39%
same,tumor growth inhibition rate,[1]; [4],61.30%
same,Relative Tumor Proliferation Rate (T/C),[1]; [5],80.34%
same,tumor growth inhibition rate,[1]; [5],21.00%
same,tumor volume and relative tumor volume compared with the model group,"[1]; T-24, low, medium and high doses, P<0.05",significantly lower
same,Relative Tumor Proliferation Rate (T/C),[1]; [6],62.35%
same,tumor growth inhibition rate,[1]; [6],44.84%
same,Inhibition Rate (%),[1]; dose 25 mg/kg,21.00%
same,Relative Tumor Proliferation Rate (T/C),[1]; dose 25 mg/kg,80.34%
same,Relative Tumor Volume (RTV),[1]; dose 25 mg/kg,10.61 ± 2.24
same,Tumor Weight,[1]; dose 25 mg/kg,1.48 ± 0.43 g
same,Tumor Volume (mm3) (d 1),[1]; dose 25 mg/kg,135.55 ± 18.08 mm3
same,Tumor Volume (mm3) (d30),[1]; dose 25 mg/kg,1427.95 ± 311.97 mm3
same,Inhibition Rate (%),[1]; dose 50 mg/kg,44.84%
same,Relative Tumor Proliferation Rate (T/C),[1]; dose 50 mg/kg,62.35%
same,Relative Tumor Volume (RTV),[1]; dose 50 mg/kg,8.24 ± 0.38
same,Tumor Weight,[1]; dose 50 mg/kg,1.03 ± 0.42 g
same,Tumor Volume (mm3) (d 1),[1]; dose 50 mg/kg,136.32 ± 15.54 mm3
same,Tumor Volume (mm3) (d30),[1]; dose 50 mg/kg,1123.28 ± 140.84 mm3
same,Inhibition Rate (%),[1]; dose 100 mg/kg,61.30%
same,Relative Tumor Proliferation Rate (T/C),[1]; dose 100 mg/kg,39.39%
same,Relative Tumor Volume (RTV),[1]; dose 100 mg/kg,5.20 ± 0.71
same,Tumor Weight,[1]; dose 100 mg/kg,0.73 ± 0.20 g
same,Tumor Volume (mm3) (d 1),[1]; dose 100 mg/kg,134.53 ± 20.46 mm3
same,Tumor Volume (mm3) (d30),[1]; dose 100 mg/kg,697.48 ± 130.89 mm3
same,mouse weight compared with the model group,"[1]; mouse, in vivo",no significant changes
same,Body Weight (g) (d1),"[1]; mouse, in vivo, 25 mg/kg",19.57 ± 0.52 g
same,Body Weight (g) (d30),"[1]; mouse, in vivo, 25 mg/kg",25.72 ± 1.53 g
same,Body Weight (g) (d1),"[1]; mouse, in vivo, 50 mg/kg",19.61 ± 0.44 g
same,Body Weight (g) (d30),"[1]; mouse, in vivo, 50 mg/kg",26.47 ± 0.52 g
same,Body Weight (g) (d1),"[1]; mouse, in vivo, 100 mg/kg",19.90 ± 0.58 g
same,Body Weight (g) (d30),"[1]; mouse, in vivo, 100 mg/kg",25.05 ± 0.93 g
same,Inhibition Rate (tumor growth inhibition rate),[2]; [7],17.41%
same,Relative Tumor Proliferation Rate (T/C),[2]; [7],63.03%
same,Relative Tumor Volume (RTV),[2]; [7],6.62 ± 2.34
same,Tumor Volume (d 1),[2]; [7],140.44 ± 14.04 mm3
same,Tumor Volume (d 30),[2]; [7],914.05 ± 279.14 mm3
same,Tumor Weight,[2]; [7],1.42 ± 0.26 g
same,Inhibition Rate (tumor growth inhibition rate),[2]; [8],23.31%
same,Relative Tumor Proliferation Rate (T/C),[2]; [8],42.54%
same,Relative Tumor Volume (RTV),[2]; [8],4.47 ± 0.94
same,Tumor Volume (d 1),[2]; [8],148.59 ± 14.47 mm3
same,Tumor Volume (d 30),[2]; [8],666.74 ± 160.61 mm3
same,Tumor Weight,[2]; [8],1.32 ± 0.25 g
same,Inhibition Rate (tumor growth inhibition rate),[2]; [9],63.93%
same,Relative Tumor Proliferation Rate (T/C),[2]; [9],35.95%
same,Relative Tumor Volume (RTV),[2]; [9],3.78 ± 0.84
same,Tumor Volume (d 1),[2]; [9],143.19 ± 17.40 mm3
same,Tumor Volume (d 30),[2]; [9],531.56 ± 78.33 mm3
same,Tumor Weight,[2]; [9],0.62 ± 0.26 g
same,tumor volume and relative tumor volume compared with the model group,"[2]; H460, low, medium and high doses, P<0.05",significantly lower
same,mouse weight compared with the model group,"[2]; mouse, in vivo",no significant changes
same,Relative Tumor Proliferation Rate (T/C),[3]; [10],33.04%
same,tumor growth inhibition rate,[3]; [10],66.53%
same,Relative Tumor Proliferation Rate (T/C),[3]; [11],65.93%
same,tumor growth inhibition rate,[3]; [11],37.99%
same,tumor volume and relative tumor volume compared with the model group,"[3]; A549, low, medium and high doses, P<0.05",significantly lower
same,Relative Tumor Proliferation Rate (T/C),[3]; [12],47.25%
same,tumor growth inhibition rate,[3]; [12],55.95%
same,Inhibition Rate (%),"[3]; A549 nude mice, 25 mg/kg",37.99%
same,Relative Tumor Proliferation Rate (T/C),"[3]; A549 nude mice, 25 mg/kg",65.93%
same,Relative Tumor Volume (RTV),"[3]; A549 nude mice, 25 mg/kg",10.70 ± 2.64
same,Tumor Weight,"[3]; A549 nude mice, 25 mg/kg",1.49 ± 0.42 g
same,Tumor Volume (mm3) (d 1),"[3]; A549 nude mice, 25 mg/kg",113.96 ± 6.85 mm3
same,Tumor Volume (mm3) (d30),"[3]; A549 nude mice, 25 mg/kg",1216.86 ± 295.20 mm3
same,Inhibition Rate (%),"[3]; A549 nude mice, 50 mg/kg",55.95%
same,Relative Tumor Proliferation Rate (T/C),"[3]; A549 nude mice, 50 mg/kg",47.25%
same,Relative Tumor Volume (RTV),"[3]; A549 nude mice, 50 mg/kg",7.67 ± 2.86
same,Tumor Weight,"[3]; A549 nude mice, 50 mg/kg",1.06 ± 0.49 g
same,Tumor Volume (mm3) (d 1),"[3]; A549 nude mice, 50 mg/kg",113.65 ± 11.57 mm3
same,Tumor Volume (mm3) (d30),"[3]; A549 nude mice, 50 mg/kg",856.65 ± 281.96 mm3
same,Inhibition Rate (%),"[3]; A549 nude mice, 100 mg/kg",66.53%
same,Relative Tumor Proliferation Rate (T/C),"[3]; A549 nude mice, 100 mg/kg",33.04%
same,Relative Tumor Volume (RTV),"[3]; A549 nude mice, 100 mg/kg",5.36 ± 3.01
same,Tumor Weight,"[3]; A549 nude mice, 100 mg/kg",0.80 ± 0.43 g
same,Tumor Volume (mm3) (d 1),"[3]; A549 nude mice, 100 mg/kg",118.69 ± 8.13 mm3
same,Tumor Volume (mm3) (d30),"[3]; A549 nude mice, 100 mg/kg",632.73 ± 350.89 mm3
same,mouse weight compared with the model group,"[3]; mouse, in vivo",no significant changes
same,Body Weight (g) (d1),"[3]; mouse, in vivo, 25 mg/kg",21.68 ± 1.25 g
same,Body Weight (g) (d30),"[3]; mouse, in vivo, 25 mg/kg",23.97 ± 1.01 g
same,Body Weight (g) (d1),"[3]; mouse, in vivo, 50 mg/kg",21.99 ± 1.40 g
same,Body Weight (g) (d30),"[3]; mouse, in vivo, 50 mg/kg",24.36 ± 1.73 g
same,Body Weight (g) (d1),"[3]; mouse, in vivo, 100 mg/kg",20.57 ± 2.28 g
same,Body Weight (g) (d30),"[3]; mouse, in vivo, 100 mg/kg",23.53 ± 1.63 g
